According to US7423051B2, “2,6-diaminopyridine derivatives” (Hoffmann-La Roche Inc., priority 2004, dated 2008):
Like-named read-outs stand apart in the source and are kept apart here.

Experiments:
HCT116 cell line = assay: Tetrazolium dye proliferation assay (MTT assay); format: cell-based; details: HCT-116; human colon tumor cell line HCT116, MTT assay
Procedure: Cell Based Assays (Tetrazolium dye proliferation assay)(“MTT Assay”)
Proliferation was evaluated by the tetrazolium dye assay according to the procedure of Denizot and Lang (Denizot, F. and Lang, R. J Immunol Methods 1986, 89, 271-277). The cell line used was HCT116, a colorectal carcinoma cell line obtained from the American Type Cell Culture Collection (ATCC; Rockville, Md.). The cells were grown in McCoy's 5A medium supplemented with 10% FCS and L-glutamine.
Cells were plated at the appropriate seeding density to give logarithmic growth over the course of the assay in a 96-well tissue culture plate. Plates were incubated overnight at 37° C. in a humidified incubator with 5% CO2. The next day, test compounds were serially diluted to four times the final concentration in the appropriate medium containing 1.2% DMSO. One-fourth final volume of each dilution was added in duplicate to the plates containing cells. The same volume of 1.2% DMSO in medium was added to a row of “control wells” such that the final concentration of DMSO in each well was 0.3%. Wells to which no cells were added served as the “blank.” Wells to which no inhibitor was added served as “no inhibitor control.” The plates were returned to the incubator, and at set time points (determined by their growth curves) plates were analyzed as described below.
3-(4,5-dimethylthiazole-2-yl)-2,5-diphenyl-2H-tetrazolium bromide (thiazolyl blue; MTT; Sigma) was added to each well to yield a final concentration of 1 mg/ml. Plates were returned to the incubator for 2.5-3 hours at 37° C. […] Absorbance readings were taken in a microtiter plate reader (Dynatech and Molecular Devices plate readers were used interchangeably) at a wavelength of 570 nm with a 650 nm reference. Percent inhibition (% INH) is calculated by subtracting the absorbance of the blank well from all wells, then subtracting the ratio of the average absorbance of each test duplicate (SAVE) by the average of the controls (CAVE) from 1.00. […]

human cyclin E-CDK2 = biological target: T1, human cyclin E-CDK2 (Homo sapiens, UniProt P24941); assay: CDK2 HTRF kinase assay (Ki measurement); format: biochemical; details: Rb substrate, ATP at 3x Km, Ki=IC50/(1+S/Km)
T1 construct: made in house; host or cells: High Five insect cells (baculovirus)
From the text: (§1) Using recombinant human cyclin B-CDK1, human cyclin E-CDK2 or human cyclin D1-CDK4 complexes. GST-cyclinE (GST-cycE), CDK2, GST-cyclinB (GST-cycB), CDK1, GST-CDK4 and cyclin D1 (cycD1) cDNA clones in baculovirus vectors were provided by Dr. W. Harper at the Baylor College of Medicine, Houston, Tex. Proteins were co-expressed in High Five™ insect cells and the complex was purified on glutathione Sepharose resin (Pharmacia, Piscataway, N.J.) as previously described (Harper, J. W. et al. Cell 1993, 75, 805-816). A 6×-Histidine tagged truncated form of retinoblastoma (Rb) protein (amino acid 386-928) was used as the substrate for the cycD1-CDK4, cycB-CDK1 and the cycE-CDK2 assays (the expression plasmid was provided by Dr. Veronica Sullivan, Department of Molecular Virology, Roche Research Centre, Welwyn Garden City, United Kingdom). The Rb protein is a natural substrate for phosphorylation by CDK4, CDK2 and CDK1 (see Herwig and Strauss Eur. J. Biochem. Vol. 246 (1997) pp.581-601 and the references cited therein).
(§2) The expression of the 62Kd protein was under the control of an IPTG inducible promoter in an M15 E. coli strain. […] Purified Rb fusion protein stocks were quantitated for protein concentration, aliquoted, and stored at −70° C.
(§3) Using the protein constructs described above, CDK1, CDK2, and CDK4 HTRF assays were set up. These were done in 96-well format and read in 384-well plate format. […]
In the CDK4 assay, test compounds were diluted to 3× their final concentrations in 25 mM Hepes, pH 7.0, 6.25 mM MgCl2, 1.5 mM DTT, 135 μM ATP. […] The plates were read using either ViewLux or Victor V readers (PerkinElmer Life Sciences) using an excitation wavelength of 340 nm and dual emission wavelengths of 615 nm and 665 nm. […] For ATP competitive inhibitors, the Ki values were calculated according to the following equation: Ki=IC50/(1+S/Km) where S refers to the substrate concentration (ATP) and Km refers to the Michaelis-Menten constant for the ATP. […]

human cyclin D1-CDK4 = biological target: T2, human cyclin D1-CDK4 (Homo sapiens, UniProt P11802); assay: CDK4 HTRF kinase assay (Ki measurement); format: biochemical; details: Rb substrate, ATP at 3x Km, Ki=IC50/(1+S/Km)
T2 construct: GST (N); made in house; host or cells: High Five insect cells (baculovirus)
T2 sequence (P11802 whole entry): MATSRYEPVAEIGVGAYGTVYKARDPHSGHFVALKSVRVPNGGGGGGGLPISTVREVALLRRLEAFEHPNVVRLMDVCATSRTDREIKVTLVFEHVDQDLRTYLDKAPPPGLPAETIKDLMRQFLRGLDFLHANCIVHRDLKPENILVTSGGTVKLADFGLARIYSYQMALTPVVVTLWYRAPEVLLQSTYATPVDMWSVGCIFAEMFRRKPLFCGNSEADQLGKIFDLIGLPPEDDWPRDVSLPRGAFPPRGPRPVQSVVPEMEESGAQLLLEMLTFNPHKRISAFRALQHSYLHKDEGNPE
T2 sequence (P24385 whole entry partner): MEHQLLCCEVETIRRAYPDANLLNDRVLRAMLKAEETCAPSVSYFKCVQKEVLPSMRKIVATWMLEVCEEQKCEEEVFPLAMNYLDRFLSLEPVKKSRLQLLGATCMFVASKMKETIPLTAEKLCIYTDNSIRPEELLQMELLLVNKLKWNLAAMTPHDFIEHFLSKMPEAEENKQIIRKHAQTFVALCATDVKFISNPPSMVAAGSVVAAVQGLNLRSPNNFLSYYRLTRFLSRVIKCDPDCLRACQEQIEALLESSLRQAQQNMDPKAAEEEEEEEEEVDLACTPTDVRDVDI
From the text: as §1, §2, §3
In the CDK4 assay, test compounds were diluted to 3× their final concentrations in 25 mM Hepes, pH 7.0, 6.25 mM MgCl2, 1.5 mM DTT, 135 μM ATP. […] The plates were read using either ViewLux or Victor V readers (PerkinElmer Life Sciences) using an excitation wavelength of 340 nm and dual emission wavelengths of 615 nm and 665 nm. […] For ATP competitive inhibitors, the Ki values were calculated according to the following equation: Ki=IC50/(1+S/Km) where S refers to the substrate concentration (ATP) and Km refers to the Michaelis-Menten constant for the ATP.

human cyclin B-CDK1 = biological target: T3, human cyclin B-CDK1 (Homo sapiens, UniProt P06493); assay: CDK1 HTRF kinase assay (Ki measurement); format: biochemical; details: Rb substrate, ATP at 3x Km, Ki=IC50/(1+S/Km)
T3 construct: made in house; host or cells: High Five insect cells (baculovirus)
T3 sequence (P06493 whole entry): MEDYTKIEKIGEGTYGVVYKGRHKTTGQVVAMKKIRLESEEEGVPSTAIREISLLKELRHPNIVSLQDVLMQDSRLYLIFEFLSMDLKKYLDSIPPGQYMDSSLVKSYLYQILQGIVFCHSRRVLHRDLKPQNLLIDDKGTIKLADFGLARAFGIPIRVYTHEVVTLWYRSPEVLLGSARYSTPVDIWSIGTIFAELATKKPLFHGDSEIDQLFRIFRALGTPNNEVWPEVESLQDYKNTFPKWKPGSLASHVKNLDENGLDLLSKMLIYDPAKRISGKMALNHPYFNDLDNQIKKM
T3 sequence (P14635 whole entry partner): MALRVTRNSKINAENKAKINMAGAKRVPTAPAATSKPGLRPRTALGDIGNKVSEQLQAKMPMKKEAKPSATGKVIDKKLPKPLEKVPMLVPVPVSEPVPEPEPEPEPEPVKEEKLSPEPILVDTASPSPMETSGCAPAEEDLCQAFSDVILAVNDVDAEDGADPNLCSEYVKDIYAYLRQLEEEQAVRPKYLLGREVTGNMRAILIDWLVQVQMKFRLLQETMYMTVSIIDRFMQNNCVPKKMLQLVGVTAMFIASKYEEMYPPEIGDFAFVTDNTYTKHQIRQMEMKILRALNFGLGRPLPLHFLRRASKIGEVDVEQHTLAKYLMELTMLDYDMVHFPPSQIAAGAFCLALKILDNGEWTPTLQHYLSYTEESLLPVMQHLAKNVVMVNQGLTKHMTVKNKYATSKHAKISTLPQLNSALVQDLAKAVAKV
From the text: Using recombinant human cyclin B-CDK1, human cyclin E-CDK2 or human cyclin D1-CDK4 complexes. GST-cyclinE (GST-cycE), CDK2, GST-cyclinB (GST-cycB), CDK1, GST-CDK4 and cyclin D1 (cycD1) cDNA clones in baculovirus vectors were provided by Dr. W. Harper at the Baylor College of Medicine, Houston, Tex. Proteins were co-expressed in High Five™ insect cells and the complex was purified on glutathione Sepharose resin (Pharmacia, Piscataway, N.J.) as previously described (Harper, J. W. et al. Cell 1993, 75, 805-816). […]
as §2, §3
In the CDK4 assay, test compounds were diluted to 3× their final concentrations in 25 mM Hepes, pH 7.0, 6.25 mM MgCl2, 1.5 mM DTT, 135 μM ATP. […] The plates were read using either ViewLux or Victor V readers (PerkinElmer Life Sciences) using an excitation wavelength of 340 nm and dual emission wavelengths of 615 nm and 665 nm. […]

IC50 (HCT116 cell line)	Ki (human cyclin E-CDK2; read-out: Ki for cdk2 (unit inferred))	Ki (human cyclin D1-CDK4)	Ki (human cyclin B-CDK1)	Ki (human cyclin E-CDK2; read-out: Ki for cdk2)	SMILES
2.6 µM	0.054 µM	0.017 µM	0.06 µM	–	COc1ccc(F)c(F)c1C(=O)c1ccc(NC2CCN(S(C)(=O)=O)CC2)nc1N [Example 40, [2-Amino-6-(1-methanesulfonyl-piperidin-4-ylamino)-pyridin-3-yl]-(2,3-difluoro-6-methoxy-phenyl)-methanone]
9 µM	–	0.04 µM	–	0.098 µM	COc1ccc(F)cc1C(=O)c1ccc(NC2CCN(S(C)(=O)=O)CC2)nc1N [Example 23, [2-Amino-6-(1-methanesulfonyl-piperidin-4-ylamino)-pyridin-3-yl]-(5-fluoro-2-methoxy-phenyl)-methanone]
3 µM	–	0.008 µM	0.154 µM	0.039 µM	COc1cc(Cl)c(F)cc1C(=O)c1ccc(NC2CCN(S(C)(=O)=O)CC2)nc1N [Example 49, [2-Amino-6-(1-methanesulfonyl-piperidin-4-ylamino)-pyridin-3-yl]-(4-chloro-5-fluoro-2-methoxy-phenyl)-methanone]
